The values below come from US20040191842A1, “Chemopreventive and therapeutic aspects of polyphenolic compositions and assays” (Medical College of Georgia Research Institute, Inc., priority 2002, published 2004).

The test system of one series is OSC-2 cells. Put plainly: Intracellular ROS levels (DFDA assay), OSC-2 cells. Type of series: cell-based, human. The procedure:
(§1) Measurement of intracellular ROS levels. The ROS assay measures the accumulation of intracellular ROS levels. The non-fluorescent dye DFDA passively diffuses into cells, where the acetates are cleaved by intracellular esterases. […] Thus, values of the fluorescence in the cell cultures are constantly rising in this assay. Cells (1.5×10^4 cells/well) were incubated with Hallam's physiological saline (HPS) containing DFDA (10 μM) in a 96-well microplate for 30 minutes at 37° C. After the incubation, cells were washed three times with HPS and then incubated with HPS containing EGCG (15-200 μM) or diamide (5 mM) for the indicated time periods. The intracellular ROS levels were measured by using a fluorescence plate reader (BIO-TEK FL600, Bio-Tek Instruments, Inc., Winooski, Vt.), at an excitation wavelength of 485 nm and an emission wavelength of 530 nm.
as §1, with “assay (DFDA assay)” for “assay”, “dye dichlorofluorescein diacetate (DFDA)” for “dye DFDA”, “this assay due to the accumulation of ROS.” for “this assay.”, “EGCG (50-200” for “EGCG (15-200”, “indicated times.” for “indicated time periods.”

A further series concerns SOD. Put plainly: SOD activity assay in cell lysates. Type of series: cell-based, human. As to conditions: 50 μM EGCG, 30 minutes; NHEK, OSC-2, OSC-4. The procedure:
Assays for SOD and catalase activities. Cells (1×10^6 cells/well) were incubated with or without EGCG (50 μM) in FilterCap 50 ml flasks (Nagel Nunc International, Rochester, N.Y.) for 30 minutes at 37° C. After the incubation, cells were harvested and disrupted in 100 μl of 10 mM Tris-HCl (pH 7.4) containing 0.1%(v/v) Triton X-100, 10 μg/ml leupeptin, 10 μg/ml pepstatin A and 100 mM phenylmethylsulfonyl fluoride by three cycles of freezing/thawing. After centrifugation at 17,000×g for 20 minutes at 4° C., the supernatants were used for SOD and catalase assays using the SOD Assay Kit-WST (Dojindo Molecular Technologies, Inc., Gaithersburg, Md.) and the AMPLEX Red Catalase Assay Kit (Molecular Probes), respectively. The activities of SOD and catalase were calibrated using a standard curve prepared with purified human SOD and catalase. The activities of SOD and catalase were expressed as units (U)/10^6 cells.
Assays for SOD and catalase activities. Cells (10^5 cells/well) were incubated with or without EGCG (50 μM) in 24-well culture plates for desirable time periods at 37° C. After the incubation, cells were harvested and disrupted in 100 μl of 10 mM Tris-HCl (pH 7.4) containing 0.1% (v/v) Triton ×-100, 10 μg/ml leupeptin, 10 μg/ml pepstatin A and 100 mM PMSF by three cycles of freezing/thawing. […] The activities of SOD and catalase were expressed as units (U)/10^6 cells.

The test system of another series is caspase 3. Put plainly: Caspase 3 activity assay, caspase 3 null MCF7 cells. Type of series: cell-based, human. Particulars: increasing EGCG or 0.2 mg/ml GTPPs, 24 h. The procedure: Caspase 3 activity assay. The Caspase 3 Apoptosis Detection Kit was purchased from Santa Cruz Biotech. Inc. In a 24 well tissue culture plate, 10^5 cells/well of cells in triplicates were plated. […] To each well, 100 μl of 2×reaction buffer was added with […]. Finally, 5 μl of DEVD-AFC substrate was added to each well containing cell lysates. The reaction mixtures were incubated for 1 hour at 37° C. The caspase 3 activity in each well was measured using a fluorescence microplate reader set for 405 nm excitation and 505 nm emission.

The conditions of series [1]: as stated in Example 9; read-out: Cmax in the plasma; cited from earlier work.

With `O=C(O[C@@H]1Cc2c(O)cc(O)cc2O[C@@H]1c1cc(O)c(O)c(O)c1)c1cc(O)c(O)c(O)c1` [EGCG, (−)-epigallocatechin-3-gallate], the “intracellular ROS levels vs controls” value in the series with OSC-2 cells (50 μM EGCG, 60 minute exposure) is on record as “remained comparable to the controls”. For the same compound, the “intracellular ROS levels vs control” value in the series with OSC-2 cells (50 or 200 μM EGCG, beyond 120 minutes) is “remained significantly higher than the control levels”. In addition, in the series on OSC-2 cells (first hour), the “H2O2 concentration producing ROS equivalent to 200 μM EGCG” value was 50 µM. The SOD activity result in the series with SOD is reported as “did not alter SOD activity”. Besides, the “caspase 3 activity” value in the series on caspase 3 was “did not show caspase 3 activity”. In addition, the Cmax (in general, the peak of the concentration-time curve) in series [1] is 10 µM.
